Measured values taken from US5094944A, “Flourescent aquatic bioassay and procedure” (priority 1990, dated 1992).
≈ marks a conversion by molar mass, not a printed value.

How the values were obtained:
Daphnia magna [1] = assay: whole plant or invertebrate; format: in vivo; conditions: for EC50: Daphnia magna, read-out: Mean EC50
Description: Determination of the EC50 Value in Test Tubes
Using Daphnia magna as a test species a series of test concentrations of the standard reference toxicant CuSO4 was established in triplicate. Each replicate consisted of 10 ml of test media in a 15 ml glass test tube. Five organisms were placed in each tube. The tubes were then maintained for a period of one hour at ambient room environmental conditions. At the end of one hour 0.4 mg of the substrate 4-Methylumbelliferyl b-D-galactoside (MUF) was added. Fifteen minutes after the addition of the MUF the test tubes were taken into a dark room. […] A record was made of the number of strongly fluorescing Daphnia magna bodies. […] These organisms were then compared to each of the other triplicate concentrations.
The data was then analyzed statistically by conventional methods (Methods for Measuring the Acute Toxicity of Effluents to Freshwater and Marine Organisms (Third Edition) EPA/600/4-85/013).
11 standard reference toxicants were then analyzed by the above method. […]

Daphnia magna [2] = assay: Daphnia magna fluorescence bioassay in a multiwell plate (Example 1); format: in vivo; set-up: key to fluorescence of Daphnia magna: fluorescing; nonfluorescing; conditions: for fluorescence of Daphnia magna / survival (all alive): replicates #1, #2, #3
Text: Determination of an EC50 Value in a Multiwell Plate
The objective of this example was to determine the EC50 value and its confidence limits for the test substance copper sulfate ([…]) to the common water flea, Daphnia magna.
Using the invertebrate Daphnia magna as a test species a series of test concentratins are established with the standard reference toxicant copper sulfate, CuSo4, in triplicate at the following concentrations:
One ml of each of the above CuSO4 solutions was pippetted into a mutiwell plate (3 replications per concentration, 1 ml per replicate). To each of 18 wells in the plate 5 Daphnia magna were added and exposed to the test concentrations for a period of five minutes. Then to each of the 18 wells, with the exception of 0-B 1, 2 and 3, 1.0 mg of 4-Methylumbelliferyl b-D-Galactoside (MUF) was dropped onto the surface of each well. The powder settled to the bottom of each well. After 1 minute of exposure, each sample was read. An ultra-violet light (black light) was held over the multiwell in a dark room. The fluorescent intensity of Controls 0-A ppm (maximum intensity) and Controls 0-B ppm (minimum intensity) were utilized as baselines to compare the effects of test concentrations 0.01 through 10.0 ppm CuSO4.

[3] = Table 2, three tests at different times per toxicant, 1 hour exposure, 15 minutes after MUF

## [Cd] [Cd, cadmium]
Daphnia magna [1]; [3]
  Mean EC50: 0.41 ppm

## [Zn] [Zn, zinc]
Daphnia magna [1]; [3]
  Mean EC50: 4.3 ppm

## Oc1ccccc1 [Phenol]
Daphnia magna [1]; 1 h
  EC50: 37.1 mg/L (≈ 394 µM)

## CCCCCCCCCCCCOS(=O)(=O)O [NaLS]
Daphnia magna [1]; [3]
  EC50: 74.1 mg/L (≈ 278 µM)

## c1ccccc1 [Benzene]
Daphnia magna [1]; 1 h
  EC50: 6.5 mg/L (≈ 83.2 µM)

## Oc1c(Cl)c(Cl)c(Cl)c(Cl)c1Cl [NaPCP]
Daphnia magna [1]; [3]
  EC50: 1 mg/L (≈ 3.75 µM)

## [Cu] [Cu, copper]
Daphnia magna [1]; test tubes, 1 hour exposure, 15 minutes after MUF
  EC50 for Cu with Daphnia magna: 0.23 ppm

## C=O [Formaldehyde]
Daphnia magna [1]; 1 h
  EC50: 39.2 mg/L (≈ 1310 µM)

## copper sulfate [CuSO4]
Daphnia magna [2]; 0.01 ppm
  fluorescence of Daphnia magna: f
  survival (all alive): all alive
Daphnia magna [2]; 0.1 ppm
  fluorescence of Daphnia magna: f
  survival (all alive): all alive
Daphnia magna [2]; 1.0 ppm
  fluorescence of Daphnia magna: f
  survival (all alive): all alive
Daphnia magna [2]; 10.0 ppm, in less than 10 minutes
  sublethal adverse affect detected: sublethal adverse affect
Daphnia magna [2]; 10.0 ppm
  fluorescence of Daphnia magna: nf
  survival (all alive): all alive
Daphnia magna [2]; multiwell plate, 5 minutes exposure, MUF substrate, read after 1 minute
  EC50: 3.2 ppm

## [Cr] [Cr, chromium]
Daphnia magna [1]; [3]
  Mean EC50: 3.7 ppm

## Cc1ccccc1 [Toluene]
Daphnia magna [1]; 1 h
  EC50: 6.3 mg/L (≈ 68.4 µM)

## mercury [Hg]
Daphnia magna [1]; [3]
  Mean EC50: 0.02 ppm
